Reference: US12180255B2, “Compositions and methods for derepressing RE1 silencing transcription factor target genes” (Alcamena Stem Cell Therapeutics, LLC, priority 2019, dated 2024)
*1 amine or outer side, *2 acyl side, *3 side chain or, on linkers, in order; H or OH if unused. Where a SMILES comes first, the peptide text is derived from it. Bridges are numbered along the chain shown (N, C = ends). Where no end group is shown, it is not given here. [ ]: non-standard residue; d: D form. ξ: configuration not given here. ξGly(dodecyl) = CCCCCCCCCCCCC(N)C(=O)O; mXylylene = c1cc(C[*:1])cc(C[*:2])c1

Assays:
[1] = Localization in spinal cord after injection at sciatic nerve defect; details: 1 mg injected into site of sciatic nerve defect, 48 hours
Protocol: FIG. 5. […] A 0.7 cm coronal spinal cord section from the […] region of a Sprague Dawley (SD) male rat showing the surrounding nuclei of the sciatic nerve, harvested 48 hours after 1 mg (1 mg/mL) of peptide was injected into the sight of a mid-thigh sciatic nerve defect injury.
Dosing and Procedure. […] After 48 hours, the animal was sacrificed and the spinal cord from the L4 to L6 region was sectioned coronally.
Immunohistochemistry. Hoechst 333429 (Calbiochem) dye was used to visualize the nucleus, and FLAG antibody (Sigma-Aldrich) was used to visualize the RPP. Images were taken with a light microscope.

NBFL cells = test: BDNF, NGF and KV4.3 transcript levels in NBFL cells dosed with linear or cyclic RPP; type: cell-based; details: 1 μM
Protocol: FIG. 9. Comparison of linear and cyclic RPP. […] Efficacy on was assessed by measuring changes in (A) BDNF, (B) NGF, and (C) KV4.3 transcript levels. N=1
Plasmids. RPP (SEQ ID NOS: 2 and 4): One segment of this construct containing T7 promoter, CPP, and His tag was synthesized as a gBlock (Table 8) by IDT and amplified with primers described in Table 8. The PCR reaction (20 μL) was initially heated at 95° C. for 2.5 min followed by 30 cycles of denaturation at 94° C. for 15 sec., annealing at 55° C. for 15 sec., and extension at 72° C. for 30 seconds. Following amplification, PCR fragment was gel-purified by the QIAGEN gel-band purification kit according to manufacturer's protocol.
In vitro Expression. RPP (Table 8) or CP (Table 9) were expressed in vitro using the PURE Express In Vitro Protein Synthesis Kit (New England Biolabs). The RPP (SEQ ID NOS: 2 and 4) or CP sequence was amplified from the RPP (SEQ ID NOS: 2 and 4) or CP expression constructs (Table 8 and 9) with primers listed in Table 8, and gel-purified by the QIAGEN gel-band purification kit. The PCR reaction (20 μL) was initially heated at 95° C. for 2.5 min followed by 30 cycles of denaturation at 94° C. for 15 sec., annealing at 55° C. for 15 sec., and extension at 72° C. for 30 sec. Then, 15 μL of the purified PCR fragment was mixed with 10 μL of Solution A and 7.5 μL of Solution B of the PURE Express In Vitro Protein Synthesis Kit (New England Biolabs) and incubated 2 hours at 37° C. Next, 2 μL of DNAse I was added and incubated for 20 min at 37° C.
Purification. RPP (SEQ ID NOS: 2 and 4) and CP: The final solution from the in vitro expression step was diluted to 100 μL and filtered through the Amicon Ultracel 0.5 mL-100K columns (Sigma) to remove ribosomes. The flow through was added to 100 μL of washed Ni-NTA Magnetic Agarose Beads (Qiagen) and was washed with wash buffer as described by the manufacturer.
Cyclization. The RPP (SEQ ID NO: 2) or was cyclized by mixing the beads with 500 μL of the cyclization solution which was made by mixing 2.65 mL of the 1.33×PBS (66.5 mM phosphate buffer, 400 mM NaCl) with 1.32 mL of dibromo-m-xylene solution in acetonitrile (2.5 mg/mL). Following incubation with the cyclization solution beads were washed once with wash buffer I (PBS with 25 mM imidazole, 0.5 μL/mL of mercaptoethanol), once with wash buffer II (PBS with 25 mM imidazole, 0.5 mM TCEP), twice with wash buffer III (PBS with 25 mM imidazole) and eluted with 50 μL of the elution buffer (PBS with 500 mM imidazole). Imidazole was removed using Bio-Rad Micro Bio-Spin Chromatography columns.
Dosing and Cell Culture. NBFL cells (FIG. 9) grown in 6 well were dosed with 1 μM of linear (SEQ ID NO: 2) or cyclic (SEQ ID NO: 2) RPP (Table 8) or control peptide (Table 9) for 16 or 48 hours.
After dosing, cells were lysed and assessed for BDNF, NGF, and KV4.3 mRNA levels (FIG. 9). All of the primers used have been described except for NGF: forward: 5′[…]3′ (SEQ ID NO: 338) and reverse 5′[…]3′ (SEQ ID NO: 339).

[2] = tested on: mesenchymal progenitor cells (MPCs); test: BDNF and NGF mRNA expression in MPCs; type: cell-based, human; details: MPC, 3 μM
Protocol: FIG. 10. BDNF and NGF mRNA expression (normalized to actin) in mesenchymal progenitor cells (MPCs), from two patients, after a 48 hour incubation with water (Ctrl) or […] RPP (SEQ. ID NO: 9). mRNA levels are shown relative to control (standard deviation, n=2).
Mesenchymal progenitor cells (MPCs) (FIG. 10) from two patients were plated on 12 well plates and cultured in general medium (GM) (DMEM, 10% FBS, PSF). Lyophilized RPP (SEQ ID NO: 9) was dissolved in water at a concentration of 5 mM (1 mg/34.89, diluted in medium to 3 μM, and then incubated with the cell for 48 hours. The control was water.
MPCs were cultured as described in Gervasi et al., 2020^76.

L5 DRGs = test: qRT-PCR mRNA expression in ex vivo cultured L5 DRGs; type: cell-based, Sprague Dawley rat; details: DRG; 1 μM; 48 h
Protocol: FIG. 15. […] Error bars =standard error of the mean.
L5 DRGs were dissected from adult male rats and plated in 12-well plates pre-coated with poly-D-Lysine (PDL) and laminin in a minimal volume of medium (250 ul Neurobasal™-A medium (GIBCO) supplemented with B27 (GIBCO), 50 ng/ml NGF (Sigma-Aldrich) and penicillin streptomycin) to allow attachment to the culture plate. One day after plating, DRGs were incubated with RPP (SEQ. ID NO: 12: 1 μM, 3 μM or 10 μM in culture medium, FIGS. 14 and 16; SEQ ID NOS: 13 and 14: 3 μM, FIG. 15) for 48 h. For RNA expression analysis, DRGs were lysed in 300 μl of Qiazol in a 1.5 ml tube containing Bullet Blender Pink Beads using a Bullet Blender Tissue Homogenizer (NextAdvance). Total RNA was extracted using RNeasy Midi Kit (Qiagen) according to manufacturer's instructions. Purified RNA was quantified with NanoDrop 2000 (ThermoFIsher), and reverse transcription was run using High Capacity cDNA Reverse Transcription Kit (Applied Biosystems) and 2 ng/ul RNA per reaction. For qRT-PCR, 5 ul of cDNA (corresponding to 10 ng of RNA) were mixed with to 10 ul SsoAdvanced™ Universal SYBR® Green Supermix (BioRad) and 1 ul of each primer (final primer concentration 500 nM each). Reactions were run in triplicates in a QuantStudio™ 7 Flex Real-Time PCR system (Applied Biosystems). Amplification data were analyzed using the comparative cycle threshold (ΔΔCt) method and β-actin as calibrator. Primers were as follows: β-actin: F-[…] (SEQ ID NO: 340), R-[…] (SEQ ID NO: 333); KV4.3: F-[…] (SEQ ID NO: 341), R-[…] (SEQ ID NO: 342); KV7.2 F-[…] AG (SEQ ID NO: 343), R-[…] (SEQ ID NO: 344); OPRM1: F-[…] (SEQ ID NO: 345), R-[…] (SEQ ID NO: 346).

[3] = tested on: iPSCs (neural stem cells (NSC)-NL5); test: Neuronal differentiation of iPSC NSC-NL5 (MAP2, TUJ1 normalized to DAPI); type: cell-based, human; details: 7 days
Protocol: FIG. 11. iPSCs (neural stem cells (NSC)-NL5) were dosed with one of the RPP sequences (3 μM) or water control shown below. After 7 days in culture, cells were assessed for neuronal differentiation using the Microtubule Associated Protein 2 (MAP2) neuronal marker (normalized to DAPI). Media and variants were replaced on Day 3. MAP2 levels are relative to control in the bar graph (standard deviation n=4).
FIG. 12. iPSCs (neural stem cells (NSC)-NL5) were with 1 μM RPP (SEQ ID NO. 9) or water control. After 7 days in culture, cells were assessed for neuronal differentiation using neuronal markers TUJ1 (class III beta-tubulin) and MAP2 (both normalized to DAPI). Media and RPP were replaced on Day 3. (standard deviation, n=6).
FIG. 13. iPSCs (neural stem cells (NSC)-NL5) were with 1 μM RPP (SEQ ID NO. 13) or water control. After 7 days in culture, cells were assessed for neuronal differentiation using neuronal markers TUJ1 and MAP2 (both normalized to DAPI). Media and RPP were replaced on Day 3. (standard deviation, n=6).
Approach 2: Induced pluripotent stem cells (neural stem cells (NSC)-NL5) differentiate after 7 Days of RPP dosing (FIG. 11 (SEQ ID NOS: 5-11, 3 μM); FIG. 12 (SEQ ID NO: 9, 1 μM) FIG. 13 (SEQ ID NO: 13 (FIG. 27), 1 μM)) using the following “Neuron to Blank” protocol: • 1. 24 well culture plates (Black Visiplate) were coated with Matrigel ([…] for 30 minutes at 37° C.). • 2. NSCs-NLS (see media below) were plated at 0.5×10^5 per well.
• 3. After 24 hours (cells should be >70% confluent), the media was changed to neuronal differentiation medium (below) with various concentrations of test peptides or water control added (FIGS. 11, 12, and 13, Table 14). The neuronal differentiation medium, with new test peptides and control, was changed every 2 days for 5 days.
• 4. On Day 7 cells were fixed 4% formaldehyde in 1×PBS for 30 minutes. • 5. Cells were immunolabeled with mouse anti-TUJ1 (1:1000) and rabbit anti-Map2 (1:500) overnight. Then label with 2nd antibody (anti-mouse488, anti-rabbit568 and DAPi) for 1 hour. • 6. Data was collected on a BioTek plate reader • a. Dapi: Excitation 360/40; Emission 460/20, Gain 35; • b. Alexa 488: Excitation 485/20; Emission 528/20, Gain 50; • c. Alexa 568: Excitation 560/20; Emission 620/10, Gain 75).

For `CC(C)C[C@H](NC(=O)[C@H](CC(=O)O)NC(=O)[C@H](CCC(=O)O)NC(=O)[C@@H](NC(=O)[C@H](CCCCN)NC(=O)[C@H](CC(=O)O)NC(=O)[C@H](CC(=O)O)NC(=O)[C@H](CC(=O)O)NC(=O)[C@H](CC(=O)O)NC(=O)[C@H](CCCCN)NC(=O)[C@H](Cc1ccc(O)cc1)NC(=O)[C@H](CC(=O)O)NC(=O)[C@H](CCCCN)NC(=O)[C@H](CCC(N)=O)NC(=O)[C@H](C)NC(=O)[C@@H](N)CS)[C@@H](C)O)C(=O)N[C@@H](CCC(=O)O)C(=O)N1CCC[C@H]1C(=O)N1CCC[C@H]1C(=O)N[C@@H](CCC(=O)O)C(=O)N1CCC[C@H]1C(=O)N1CCC[C@H]1C(=O)N[C@@H](CC(C)C)C(=O)N1CCC[C@H]1C(=O)N[C@@H](CCCCN)C(=O)N[C@@H](CCC(=O)O)C(=O)N[C@@H](CC(N)=O)C(=O)NCC(=O)N[C@@H](CCCNC(=N)N)C(=O)N[C@@H](CCCCN)C(=O)N[C@@H](CCCCN)C(=O)N[C@@H](CCCNC(=N)N)C(=O)N[C@@H](CCCNC(=N)N)C(=O)N[C@@H](CCC(N)=O)C(=O)N[C@@H](CCCNC(=N)N)C(=O)N[C@@H](CCCNC(=N)N)C(=O)N[C@@H](CCCNC(=N)N)C(=O)NCC(=O)O` [SEQ ID NO: 4] (H-CAQKDYKDDDDKTEDLEPPEPPLPKENGRKKRRQRRRG-OH; N-terminus and C-terminus assumed), which “localization in nuclei of sciatic nerve neurons in spinal cord” value [1] is on record?
Its value is “accumulates in the nuclei of the sciatic nerve in spinal cord”.

What about the “localization in nuclei of sciatic nerve neurons in spinal cord” value ([1]; listed as Linear RPP) of the same molecule?
Its value is “accumulates in the nucleus of sciatic nerve tissue”.

Which “Increase, BDNF mRNA” value (NBFL cells; 16 h) does the source give for “MCTEDLEPPEPPLPKENCGSGSGRKKRRQRRRGGSGSLGHHHHHHGTGY (linker 2-18 via mXylylene (inferred)) [SEQ ID NO: 2, RPP-CPP-His, cyclized with dibromo-m-xylene]” here?
The value was 5x.

What about the “Increase, KV4.3 mRNA” value (NBFL cells; 16 h) of the same molecule?
Its value is 5x.

What about the “Increase, NGF mRNA” value (NBFL cells; 16 h) of the same molecule?
The value was 3.2x.

What about the “Increase, BDNF mRNA” value (NBFL cells; 48 h) of the same molecule?
Its value is 2.3x.

What about the “Increase, KV4.3 mRNA” value (NBFL cells; 48 h) of the same molecule?
Its value is 5x.

And the “Increase, NGF mRNA” value (NBFL cells; 48 h)?
Its value is 1.7x.

What about the “Increase, BDNF mRNA” value (NBFL cells; 48 h, listed as Cyclic) of the same molecule?
Its value is 1.75× x.

And the “Increase, KV4.3 mRNA” value (NBFL cells; 48 h, listed as Cyclic)?
The value was 25× x.

What about the “Increase, NGF mRNA” value (NBFL cells; 48 h, listed as Cyclic) of the same molecule?
The value was 1.87 x.

With “rrrrwrrwwrrwrrnekplppeppeldet ([dR][dR][dR][dR][dW][dR][dR][dW][dW][dR][dR][dW][dR][dR][dN][dE][dK][dP][dL][dP][dP][dE][dP][dP][dE][dL][dD][dE][dT]) [SEQ ID NO: 9]” as the molecule, how does the “Increase, BDNF mRNA” value ([2]; 48 h) read?
Its value is 2x.

What about the “Increase, NGF mRNA” value ([2]; 48 h) of the same molecule?
Its value is 2.9x.

And the “increase of BDNF relative to water control” value ([2]; 48 hours)?
Its value is “approximately 2 times”.

What about the “increase of NGF relative to water control” value ([2]; 48 hours) of the same molecule?
The value was about 3 times.

Which results are given for “SEQ ID NO: 13: CPP with poly arginine sequence and two 2-aminotetradecanoic acids integrated with the REST RI phosphomimetic ([dR][dR][ξGly(dodecyl)][dR][dR][ξGly(dodecyl)][dR][dR][dR][dR][dR][dK][dP][dL][dP][dP][dE][dP][dP][dE][dL][dD][dE])”?
Increase, Nav1.8 mRNA (L5 DRGs): 6x; increase of differentiation, MAP2 normalized to DAPI ([3]; 0.1 μM): 27%; increase of differentiation, TUJ1 normalized to DAPI ([3]; 0.1 μM): 60%; increase of differentiation, MAP2 normalized to DAPI ([3]; 1 μM): 2 times; increase of differentiation, TUJ1 normalized to DAPI ([3]; 1 μM): 3 times
